The target in assay [1] is T1, RARβ (Homo sapiens, UniProt P10826).
T1 sequence (P10826 183-417 limits assumed): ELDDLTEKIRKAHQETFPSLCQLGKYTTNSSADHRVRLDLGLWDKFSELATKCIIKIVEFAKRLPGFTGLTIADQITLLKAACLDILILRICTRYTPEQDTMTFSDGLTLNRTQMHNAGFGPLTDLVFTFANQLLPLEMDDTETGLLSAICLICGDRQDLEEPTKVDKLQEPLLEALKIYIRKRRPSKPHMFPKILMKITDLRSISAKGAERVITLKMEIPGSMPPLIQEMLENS
In words: PGA-RAR antagonist assay (glucocorticoid-retinoid chimeric receptors). Type of assay: cell-based. On the set-up: other: in the presence of 1 nM all-trans retinoic acid; fused on or other part: Glucocorticoid receptor DNA-recognition part in place of RAR's own. To be noted: in the presence of 1 nM all-trans retinoic acid; read-out: RAR IC50 (nM) (% Inhibition) β. The text has this:
(§1) A holoreceptor transactivation assay and a ligand binding assay which measure the antagonist/agonist like activity of the compounds of the invention, or their ability to bind to the several retinoid receptor subtypes, respectively, are described in published PCT Application No. WO WO93/11755 (particularly on pages 30-33 and 37-41) published on Jun. 24, 1993, the specification of which is also incorporated herein by reference. A detailed experimental procedure for holoreceptor transactivations has been described by Heyman et al. Cell 68, 397-406, (1992); Allegretto et al. J. Biol. Chem. 268, 26625-26633, and Mangelsdorf et al. The Retinoids: Biology, Chemistry and Medicine, pp 319-349, Raven Press Ltd., New York, which are expressly incorporated herein by reference. The results obtained in this assay are expressed in EC50 numbers, as they are also in the chimeric receptor transactivation assay. The other functional assay running in the presence of 1 nM all-trans retinoic acid, namely PGA-RAR antagonist assay (utilizing glucocorticoid-retinoid chimeric receptors), is a modified chimeric receptor transactivation assay which tests the compounds for their antagonist-like activity in the RARα, RARγ and RARγ receptor subtypes. The results from this assay are normally expressed in IC50 numbers (See Teng et al. J. Med. Chem. 40, 2445-2452, (1997) incorporated herein by reference.)
(§2) Percentage inhibition in an antagonist assay is expressed as a percentage of the maximum inhibition of the transaction activity induced by 1 nM all-trans retinoic acid.

The target of another assay is T2, RARα (Homo sapiens, UniProt P10276).
T2 sequence (P10276 183-417 limits assumed): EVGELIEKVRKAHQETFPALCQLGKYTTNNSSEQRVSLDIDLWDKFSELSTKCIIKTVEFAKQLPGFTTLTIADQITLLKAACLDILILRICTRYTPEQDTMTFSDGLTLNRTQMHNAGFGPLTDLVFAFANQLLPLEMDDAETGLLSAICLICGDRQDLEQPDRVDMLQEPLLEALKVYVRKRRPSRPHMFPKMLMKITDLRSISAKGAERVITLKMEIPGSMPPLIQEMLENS
Described as above. Type of assay: cell-based. On the set-up: other: in the presence of 1 nM all-trans retinoic acid; fused on or other part: Glucocorticoid receptor DNA-recognition part in place of RAR's own. To be noted: in the presence of 1 nM all-trans retinoic acid; read-out: RAR IC50 (nM) (% Inhibition) α.
Description: as §1, §2

A further assay has as its target T3, RARγ (Homo sapiens, UniProt P13631).
T3 sequence (P13631 1-454): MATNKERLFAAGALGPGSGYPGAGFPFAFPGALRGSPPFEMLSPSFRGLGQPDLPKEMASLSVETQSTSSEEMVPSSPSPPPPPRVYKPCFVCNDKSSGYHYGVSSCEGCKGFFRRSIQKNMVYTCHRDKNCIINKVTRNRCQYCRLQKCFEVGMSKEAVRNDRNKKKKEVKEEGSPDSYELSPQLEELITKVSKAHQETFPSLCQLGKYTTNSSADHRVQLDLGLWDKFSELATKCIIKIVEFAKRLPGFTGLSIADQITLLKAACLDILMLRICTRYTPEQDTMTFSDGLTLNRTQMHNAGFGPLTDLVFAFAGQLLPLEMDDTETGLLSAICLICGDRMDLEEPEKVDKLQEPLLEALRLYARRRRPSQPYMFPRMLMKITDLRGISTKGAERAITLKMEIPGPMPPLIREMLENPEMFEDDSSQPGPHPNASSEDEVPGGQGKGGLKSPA
In words: ligand binding assay. To be noted: expressed in Ki numbers, read-out: RAR Binding γ. Here is the method:
The results obtained in this assay are expressed in EC50 numbers, as they are also in the chimeric receptor transactivation assay. The other functional assay running in the presence of 1 nM all-trans retinoic acid, namely PGA-RAR antagonist assay (utilizing glucocorticoid-retinoid chimeric receptors), is a modified chimeric receptor transactivation assay which tests the compounds for their antagonist-like activity in the RARα, RARγ and RARγ receptor subtypes.
The results of the ligand binding assay are expressed in Ki numbers.

The target in assay [2] is T1, RARβ. As to the kind of experiment: chimeric receptor transactivation assay (agonist-like activity). Type of assay: cell-based. Set-up: RAR EC50 (nM) (% Efficiency) β. The settings on record: read-out: RAR EC50 (nM) (% Efficiency) β. How it is done: Specifically, one assay in which the compounds were tested is a chimeric receptor transactivation assay which tests for agonist-like activity in the RARα, RARγ and RARγ receptor subtypes, and which is based on work published by Feigner P. L. and Holm M (1989) Focus, 112 is described in detail in U.S. Pat. No. 5,455,265. The specification of U.S. Pat. No. 5,455,265 is hereby expressly incorporated by reference.
as §1

`Cc1ccc(C2=CCC(C)(C)c3cc(C(/C=C/c4ccc(C(=O)O)cc4)=NO)ccc32)cc1` (racemic) [Compound 7c, 4-[3-(8,8-Dimethyl-5-p-tolyl-7,8-dihydro-naphthalen-2-yl)-3-hydroxyimino-propenyl]-benzoic acid]: the IC50 is more than 100000 nM at RARβ [1] and more than 50000 nM on RARα. Besides, the Ki at RARγ worked out at 6 nM. Besides, the EC50 at RARβ [2] is more than 10000 nM.

Turning to `Cc1ccc(C2=CCC(C)(C)c3cc(C(/C=C/c4ccc(C(=O)O)cc4)=N/O)ccc32)cc1` [Compound 7a, E-4-[3-(8,8-Dimethyl-5-p-tolyl-7,8-dihydro-naphthalen-2-yl)-3-hydroxyimino-propenyl]-benzoic acid], the IC50 on RARβ [1] and on RARα was more than 1000 nM in each case. Moreover, the Ki at RARγ is 3 nM. Besides, the EC50 at RARβ [2] was more than 10000 nM.

For the compound `Cc1ccc(C2=CCC(C)(C)c3cc(C(/C=C/c4ccc(C(=O)O)cc4)=N\O)ccc32)cc1` [Compound 7b, Z-4-[3-(8,8-dimethyl-5-p-tolyl-7,8-dihydro-naphthalen-2-yl)-3-hydroxyimino-propenyl]-benzoic acid], the IC50 at RARβ [1] and on RARα was more than 1000 nM each time. The Ki on RARγ turned out to be 29 nM. Moreover, on RARβ [2], the concentration for a half-maximal effect (EC50) is more than 10000 nM.

Regarding `Cc1ccc(C2=CCC(C)(C)c3cc(C(/C=C/c4ccc(C(=O)O)cc4F)=N/O)ccc32)cc1` [Compound 9a, E-4-[3-(8,8-Dimethyl-5-p-tolyl-7,8-dihydro-naphthalen-2-yl)-3-hydroxyimino-propenyl]-3-fluoro-benzoic acid], the IC50 on RARβ [1] and at RARα was more than 1000 nM each time. Also, at RARγ, the Ki amounted to 11 nM. Further, the EC50 at RARβ [2] was more than 10000 nM.

In the case of `Cc1ccc(C2=CCC(C)(C)c3cc(C(/C=C/c4ccc(C(=O)O)cc4F)=N\O)ccc32)cc1` [Compound 9b, Z-4-[3-(8,8-Dimethyl-5-p-tolyl-7,8-dihydro-naphthalen-2-yl)-3-hydroxyimino-propenyl]-3-fluoro-benzoic acid], the half-maximal inhibitory concentration (IC50) at RARβ [1] and at RARα was more than 1000 nM in each case. The Ki on RARγ worked out at 133 nM. Moreover, on RARβ [2], the EC50 is more than 10000 nM.

Consider `Cc1ccc(C2=CC(C)(C)c3cc(C(/C=C/c4ccc(C(=O)O)cc4)=N/O)ccc32)cc1` [Compound 16a], for which the IC50 on RARβ [1] and on RARα was more than 1000 nM each time. Also, at RARγ, the Ki was found to be 25 nM. The EC50 at RARβ [2] was more than 10000 nM.

With `Cc1ccc(C2=CC(C)(C)c3cc(C(/C=C/c4ccc(C(=O)O)cc4)=N\O)ccc32)cc1` [Compound 16b], the IC50 on RARβ [1] and at RARα was more than 1000 nM each time. At RARγ, the Ki stood at 145 nM. Besides, the EC50 at RARβ [2] was more than 10000 nM.

Turning to `Cc1ccc(C2=CC(C)(C)c3cc(C(/C=C/c4ccc(C(=O)O)cc4F)=N/O)ccc32)cc1` [Compound 18a, E-4-[3-(3,3-Dimethyl-1-p-tolyl-3H-inden-5-yl)-3-hydroxyimino-propenyl]-3-fluoro-benzoic acid], the IC50 on RARβ [1] and at RARα was more than 1000 nM throughout. In addition, at RARγ, the Ki was found to be 70 nM. Besides, the EC50 at RARβ [2] was more than 10000 nM.

Take `Cc1ccc(C2=CC(C)(C)c3cc(C(/C=C/c4ccc(C(=O)O)cc4F)=N\O)ccc32)cc1` [Compound 18b, Z-4-[3-(3,3-Dimethyl-1-p-tolyl-3H-inden-5-yl)-3-hydroxyimino-propenyl]-3-fluoro-benzoic acid]: the IC50 on RARβ [1] and at RARα was more than 1000 nM in each case. For the same compound, the Ki on RARγ worked out at 717 nM. Moreover, the EC50 on RARβ [2] is more than 10000 nM.

As usually defined, the IC50 is the concentration that gives 50% inhibition. The EC50 is the concentration giving half of the maximal effect.

These data come from patent US7432388B2 (Allergan, Inc., priority 2003, dated 2008).
